# Where a name gives a salt, the structure may show the parent alone.
# Molecular target: T1, Human Polθ polymerase domain (aa1820-2590) (Homo sapiens, UniProt O75417)
# T1 construct: Human Polθ polymerase domain (aa1820-2590) was expressed in E. Coli; made in house; host or cells: E. coli
# T1 sequence (O75417 1820-2590): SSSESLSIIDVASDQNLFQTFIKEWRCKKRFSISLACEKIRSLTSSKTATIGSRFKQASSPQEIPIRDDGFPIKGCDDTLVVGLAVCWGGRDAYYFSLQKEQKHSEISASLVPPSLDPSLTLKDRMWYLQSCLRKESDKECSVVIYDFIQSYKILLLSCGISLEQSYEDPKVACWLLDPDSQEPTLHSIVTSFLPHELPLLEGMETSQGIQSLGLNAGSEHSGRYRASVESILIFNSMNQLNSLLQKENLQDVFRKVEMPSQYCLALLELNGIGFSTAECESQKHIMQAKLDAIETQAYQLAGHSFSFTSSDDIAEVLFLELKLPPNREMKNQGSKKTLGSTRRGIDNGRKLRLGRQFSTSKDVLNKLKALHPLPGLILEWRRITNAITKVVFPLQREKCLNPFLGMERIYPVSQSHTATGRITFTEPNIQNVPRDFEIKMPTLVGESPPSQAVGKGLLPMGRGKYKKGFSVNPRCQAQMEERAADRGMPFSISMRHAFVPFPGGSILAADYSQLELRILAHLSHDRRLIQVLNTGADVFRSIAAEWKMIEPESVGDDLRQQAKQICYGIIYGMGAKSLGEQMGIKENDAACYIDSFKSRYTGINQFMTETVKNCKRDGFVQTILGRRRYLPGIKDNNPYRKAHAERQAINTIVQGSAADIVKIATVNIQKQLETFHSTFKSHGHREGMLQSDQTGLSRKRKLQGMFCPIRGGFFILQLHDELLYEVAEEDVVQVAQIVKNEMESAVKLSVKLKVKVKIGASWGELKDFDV
# Assay: Polθ Polymerase Domain WT KI Assay (PicoGreen)
# Assay type: biochemical
# Settings: 100 nM DNA substrate, 0.156 nM Polθ, initial rates vs inhibitor concentration
# Method in brief: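 E. coli-expressed human Polθ polymerase domain (aa1820-2590) on annealed DNA II Short/Long primer-template (1.2:1), in 25 mM Tris pH 7.5, NaCl, 5% glycerol, 0.01% Triton X-100, 0.1 mg/ml BSA, 1 mM DTT, 1% DMSO. EDTA-quenched timepoints to 180 min, PicoGreen fluorescence. Initial rates vs inhibitor concentration fitted four-parameter for KI.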
row,SMILES,Ki [nM]
1,"Cc1cc(C(F)(F)F)cc(N2C(=O)C[C@@H]3CN(C[C@H]4COCCN4)c4c(Cl)cccc4N(C)C(=O)[C@H]32)n1 (racemic) [Example 108a, (3aR,11aS)-6-Chloro-10-methyl-1-(6-methyl-4-(trifluoromethyl)pyridin-2-yl)-5-(((S/R)-morpholin-3-yl)methyl)-1,3a,4,5,10,11a-hexahydro-2H-benzo[b]pyrrolo[2,3-f][1,4]diazocine-2,11(3H)-dione]",2.17
2,"Cc1cc(C(F)(F)F)cc(N2C(=O)C[C@@H]3CN(CCN(C)CCO)c4c(C)cccc4N(C)C(=O)[C@H]32)n1 [Example 54, (3aR,11aS)-5-(2-((2-Hydroxyethyl)(methyl)amino)ethyl)-6,10-dimethyl-1-(6-methyl-4-(trifluoromethyl)pyridin-2-yl)-1,3a,4,5,10,11a-hexahydro-2H-benzo[b]pyrrolo[2,3-f][1,4]diazocine-2,11(3H)-dione]",5.56
3,"Cc1cc(C(F)(F)F)cc(N2C(=O)C[C@@H]3CN(CCN4CCC(O)CC4)c4c(Cl)cccc4N(C)C(=O)[C@H]32)n1 [Example 34, (3aR,11aS)-6-Chloro-5-(2-(4-hydroxypiperidin-1-yl)ethyl)-10-methyl-1-(6-methyl-4-(trifluoromethyl)pyridin-2-yl)-1,3a,4,5,10,11a-hexahydro-2H-benzo[b]pyrrolo[2,3-f][1,4]diazocine-2,11(3H)-dione]",3.82
4,"Cc1cc(C(F)(F)F)cc(N2C(=O)C[C@@H]3CN(CCN4CC5(CCO5)C4)c4c(C)cccc4N(C)C(=O)[C@H]32)n1 [Example 14, (3aR,11aS)-5-(2-(1-Oxa-6-azaspiro[3.3]heptan-6-yl)ethyl)-6,10-dimethyl-1-(6-methyl-4-(trifluoromethyl)pyridin-2-yl)-1,3a,4,5,10,11a-hexahydro-2H-benzo[b]pyrrolo[2,3-f][1,4]diazocine-2,11(3H)-dione]",0.757
5,"Cc1cc(C(F)(F)F)cc(N2C(=O)C[C@@H]3CN(CCN4C[C@@H](C)N[C@@H](C)C4)c4c(C)cccc4N(C)C(=O)[C@H]32)n1 (relative stereo) [Example 45, (3aR,11aS)-5-(2-(rel-(3R,5S)-3,5-Dimethylpiperazin-1-yl)ethyl)-6,10-dimethyl-1-(6-methyl-4-(trifluoromethyl)pyridin-2-yl)-1,3a,4,5,10,11a-hexahydro-2H-benzo[b]pyrrolo[2,3-f][1,4]diazocine-2,11(3H)-dione dihydrochloride]",0.651
6,"Cc1cc(C(F)(F)F)cc(N2C(=O)C[C@@H]3CN(CC4CNCCO4)c4c(Cl)cccc4N(C)C(=O)[C@H]32)n1 (single isomer, unassigned) [Example 109a]",1.11
7,"COc1cc(N2C[C@H]3CC(=O)N(c4cc(C(F)(F)F)cc(C)n4)[C@@H]3C(=O)N(C)c3cccc(F)c32)ccn1 [Example 142, (3aR,11aS)-6-Fluoro-5-(2-methoxypyridin-4-yl)-10-methyl-1-(6-methyl-4-(trifluoromethyl)pyridin-2-yl)-1,3a,4,5,10,11a-hexahydro-2H-benzo[b]pyrrolo[2,3-f][1,4]diazocine-2,11(3H)-dione]",461
8,"Cc1cc(C(F)(F)F)cc(N2C(=O)C[C@@H]3CN(CCN4C[C@@H]5C[C@H]4CN5C)c4c(C)cccc4N(C)C(=O)[C@H]32)n1 [Example 62, (3aR,11aS)-6,10-Dimethyl-5-(2-((1S,4S)-5-methyl-2,5-diazabicyclo[2.2.1]heptan-2-yl)ethyl)-1-(6-methyl-4-(trifluoromethyl)pyridin-2-yl)-1,3a,4,5,10,11a-hexahydro-2H-benzo[b]pyrrolo[2,3-f][1,4]diazocine-2,11(3H)-dione dihydrochloride]",1.01
9,"Cc1cc(C(F)(F)F)cc(N2C(=O)C[C@@H]3CN(CCCN4CCOCC4)c4c(Cl)cccc4N(C)C(=O)[C@H]32)n1 [Example 136, (3aR,11aS)-6-Chloro-10-methyl-1-(6-methyl-4-(trifluoromethyl)pyridin-2-yl)-5-(3-morpholinopropyl)-1,3a,4,5,10,11a-hexahydro-2H-benzo[b]pyrrolo[2,3-f][1,4]diazocine-2,11(3H)-dione hydrochloride]",0.786

# From patent publication US20260124214A1, “HETEROCYCLIC COMPOUNDS FOR USE IN THE TREATMENT OF CANCER” (ARTIOS PHARMA LIMITED, priority 2021, published 2026)
